# Experimental data: article PMC8980233, “Differentiating the Neuropharmacological Properties of Nicotinic Acetylcholine Receptor-Activating Alkaloids” (Frontiers in Pharmacology, 2022)
# Entries after “also recorded” stand apart in the source; their conditions may differ.
# Key:
# [1] = tested on: norepinephrine release from hippocampal synaptosomes; test: In vitro [3H]norepinephrine release from crude hippocampal synaptosomes; assay type: biochemical, rat
# Protocol: In vitro neurotransmitter assays using crude synaptosome preparations were conducted by Gifford Biosciences Limited (Birmingham, UK) based on the previously described protocols ([Clarke and Reuben, 1996]; [Gifford et al., 2000]). In brief, male Sprague Dawley rats (200–225 g) were terminated by cervical dislocation followed by decapitation. The striatums or hippocampi were dissected and homogenized in ice-cold 0.32 M sucrose using a Dounce homogenizer. The homogenates were centrifuged at 100 x g for 5 min to pellet cell debris. The supernatants were collected and centrifuged at 17,000 x g for 10 min at 4°C to pellet crude synaptosomes. The pellets were resuspended in 5 ml Krebs buffer, pH 7.4 (in mM (pH 7.4): 120 NaCl, 3.3 KCl, 1.2 MgSO4, 1.3 CaCl2, 1.2 K2HPO4, 25 HEPES, 11 glucose, 0.01 ascorbic acid, 0.025 pargyline, and 0.1% BSA containing 2 μCi/ml [^3H]norepinephrine for hippocampal synaptosomes or 1 μCi/ml [^3H]dopamine for striatal synaptosomes and incubated for 15 min at 35°C with gentle shaking.
# The [^3H]norepinephrine- or [^3H]dopamine-treated crude synaptosomes were loaded onto closed filter chambers containing Whatman® Grade GF/C Glass Microfiber filters (Sigma-Aldrich, Merck KGaA, Darmstadt, Germany) and placed in a superfusion system. Preoxygenated Krebs buffer was perfused through the chambers at a rate of 1 ml/min at 37 °C using an 8-channel peristaltic pump. To ensure an even flow over the synaptosomal bed, trapped air bubbles were removed from the filters prior to collection of the fractions. After a superfusion period of 40 min, three basal fractions (1.5 ml/fraction) were collected first, followed by three fractions (1.5 ml/fraction) containing the test compound. Two additional fractions were collected in the presence of 30 mM KCl to depolarize the synaptosomes. A 0.4-ml aliquot of each fraction was then transferred to a counting plate, and a scintillation cocktail was added to measure the radioactivity using a Wallac® TriLux 1450 MicroBeta counter (PerkinElmer Life Sciences, Zaventem, Belgium). Once all fractions were collected, the filters holding the crude synaptosome samples were removed and dried overnight at room temperature. On the following day, the scintillation cocktail was added and the filters were counted to determine residual radioactivity.
# Compound-evoked release of neurotransmitters was calculated by subtracting the counts per minute (CPM) in the two basal fractions collected immediately prior to compound addition from those in the two fractions collected immediately following compound addition. The compound-evoked release was then expressed as a percentage of the basal release from that chamber. Potassium-evoked release was calculated by subtracting the CPM in the fraction immediately prior to KCl addition from the CPM in the […] immediately following potassium addition. Stimulated release was calculated as the percentage of basal release for that chamber. The increase in stimulated release above the baseline (no compound) release for that experimental run was determined, and the latter values were plotted on the graphs. Dose–response curves were determined using non-linear curve fitting in Prism (GraphPad Software, Inc, San Diego, CA, United States). All experiments were repeated at least three times.
# α3β4 nAChR [2] = molecular target: T1, α3β4 nAChR (Homo sapiens, UniProt P30926+P32297); test: nAChR functional assay, automated patch-clamp; assay type: cell-based
# Protocol: The following selection antibiotics were used for the cell lines: G418 (0.25 mg/ml; Sigma-Aldrich) and Zeocin^TM (0.4 mg/ml; InvivoGen, San Diego, CA, United States) for α7/Ric3 nAChR and α3β4 nAChR cells; puromycin (8 μg/ml; InvivoGen) and hygromycin B (0.4 mg/ml; Gibco) for α4β2 nAChR cells; and G418 (0.5 mg/ml), puromycin (0.25 μg/ml), and hygromycin B (0.02 mg/ml) for α6/3β2/β3 nAChR cells. […] The human nAChRs were selected due to the lack of commercially available nAChR expression systems for mouse or zebrafish.
# Data were analyzed using the Patchmaster software and corrected for leak current. The data acceptance criteria were as follows: seal resistance >100 MΩ; seal resistance loss variation <50%; access resistance <20 MΩ; and minimum current amplitude elicited by maximal effect concentration acetylcholine >50 pA. Offline data analysis was performed in OpenOffice™ (v4.1.2; The Apache Software Foundation, Wakefield, MA, United States). […] Igor Pro (v6.2.2.2; WaveMetrics, Lake Oswego, OR, United States) or Prism (v8.2.1) were used for assessing the concentration–response curves.
# α3β4 nAChR [3] = molecular target: T1, α3β4 nAChR; test: Radioligand displacement binding assay
# Protocol: All binding and functional assays for molecular target characterization were conducted by Eurofins Cerep SA (Celle-Lévescault, France) and Eurofins Panlabs Discovery Services Taiwan, Ltd. (New Taipei City, Taiwan) using their standard in vitro binding and functional assays (Supplementary Material S2). […] Negative values were considered to be an artifact arising from, for example, compounds interfering with the assay readout.
# The radioligand displacement binding assays employed the gold standard filtration method using membrane preparations from stable cell lines (HEK-293 or CHO cells) expressing human or rodent target proteins to determine the interaction of the compounds with specific receptors, channels, and transporters. For this purpose, the competitive binding of test compounds against a [^125I]- [^3H]-, or [^35S]-labelled agonist and/or antagonist was determined. The specific list of radiolabeled ligands and experimental conditions are summarized in Supplementary Material S2.
# [4] = 0.5 mg/kg; ref Petersen et al. (1984); cited from earlier work
# α4β2 nAChR = α4β2 nAChR (Homo sapiens, UniProt P17787+P43681); test: Radioligand displacement binding assay
# Protocol: Assay Source Ligand Conc. Kd Non Specific Incubation Detection Bibl.
# N neuronal α7 (h) SH-SY5Y cells [125I]α-bungarotoxin 0.05 nM 0.34 nM α-bungarotoxin 120 min Scintillation 347
# (antagonist radioligand) (human (1 µM) 37°C counting
# [5] = mean ± S.D., no effect = up to 33 μM
# T1 sequence (P32297 32-505): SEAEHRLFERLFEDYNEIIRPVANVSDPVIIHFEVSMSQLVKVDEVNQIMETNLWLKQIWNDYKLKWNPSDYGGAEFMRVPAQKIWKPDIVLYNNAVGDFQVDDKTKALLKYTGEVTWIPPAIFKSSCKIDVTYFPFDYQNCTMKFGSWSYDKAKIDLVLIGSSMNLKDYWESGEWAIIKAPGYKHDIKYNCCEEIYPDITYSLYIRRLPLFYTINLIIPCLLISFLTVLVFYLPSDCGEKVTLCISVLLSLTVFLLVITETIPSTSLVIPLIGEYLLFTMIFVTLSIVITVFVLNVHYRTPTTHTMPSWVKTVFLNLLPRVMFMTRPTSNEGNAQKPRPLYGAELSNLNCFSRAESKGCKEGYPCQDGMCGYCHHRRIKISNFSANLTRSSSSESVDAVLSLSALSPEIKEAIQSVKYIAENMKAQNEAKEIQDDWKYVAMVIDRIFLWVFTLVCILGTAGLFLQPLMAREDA
# T1 sequence (P30926 22-498): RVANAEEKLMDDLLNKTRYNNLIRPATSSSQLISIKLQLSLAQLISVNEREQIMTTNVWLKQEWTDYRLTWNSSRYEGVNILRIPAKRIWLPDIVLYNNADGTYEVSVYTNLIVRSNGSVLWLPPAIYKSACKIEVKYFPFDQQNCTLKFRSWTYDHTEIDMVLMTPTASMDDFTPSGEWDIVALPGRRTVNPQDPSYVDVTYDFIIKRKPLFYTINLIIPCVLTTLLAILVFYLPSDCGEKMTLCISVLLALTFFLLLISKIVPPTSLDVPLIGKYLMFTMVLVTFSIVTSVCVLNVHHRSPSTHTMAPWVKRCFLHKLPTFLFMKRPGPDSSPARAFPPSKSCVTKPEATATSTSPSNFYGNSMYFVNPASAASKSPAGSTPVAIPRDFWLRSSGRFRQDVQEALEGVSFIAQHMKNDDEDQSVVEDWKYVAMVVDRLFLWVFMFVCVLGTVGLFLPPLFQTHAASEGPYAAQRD
# α4β2 nAChR, sequence (P43681 29-627 limits assumed): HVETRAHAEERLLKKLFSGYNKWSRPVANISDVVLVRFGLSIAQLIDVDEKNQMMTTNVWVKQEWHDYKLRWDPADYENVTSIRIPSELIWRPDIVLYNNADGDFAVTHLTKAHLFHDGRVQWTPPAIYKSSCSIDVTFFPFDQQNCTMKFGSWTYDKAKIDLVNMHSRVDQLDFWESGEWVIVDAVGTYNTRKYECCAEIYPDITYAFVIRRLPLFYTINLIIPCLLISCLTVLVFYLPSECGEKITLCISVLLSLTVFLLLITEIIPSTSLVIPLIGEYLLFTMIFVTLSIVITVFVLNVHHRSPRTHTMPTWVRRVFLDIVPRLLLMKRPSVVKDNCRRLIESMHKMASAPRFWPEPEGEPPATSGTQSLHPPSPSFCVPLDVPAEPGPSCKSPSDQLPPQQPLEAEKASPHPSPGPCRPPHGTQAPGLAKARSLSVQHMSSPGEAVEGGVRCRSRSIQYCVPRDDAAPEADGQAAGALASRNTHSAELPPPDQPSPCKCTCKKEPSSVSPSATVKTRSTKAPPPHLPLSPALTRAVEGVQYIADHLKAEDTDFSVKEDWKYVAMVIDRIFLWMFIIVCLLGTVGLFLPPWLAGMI
# α4β2 nAChR, sequence (P17787 26-502): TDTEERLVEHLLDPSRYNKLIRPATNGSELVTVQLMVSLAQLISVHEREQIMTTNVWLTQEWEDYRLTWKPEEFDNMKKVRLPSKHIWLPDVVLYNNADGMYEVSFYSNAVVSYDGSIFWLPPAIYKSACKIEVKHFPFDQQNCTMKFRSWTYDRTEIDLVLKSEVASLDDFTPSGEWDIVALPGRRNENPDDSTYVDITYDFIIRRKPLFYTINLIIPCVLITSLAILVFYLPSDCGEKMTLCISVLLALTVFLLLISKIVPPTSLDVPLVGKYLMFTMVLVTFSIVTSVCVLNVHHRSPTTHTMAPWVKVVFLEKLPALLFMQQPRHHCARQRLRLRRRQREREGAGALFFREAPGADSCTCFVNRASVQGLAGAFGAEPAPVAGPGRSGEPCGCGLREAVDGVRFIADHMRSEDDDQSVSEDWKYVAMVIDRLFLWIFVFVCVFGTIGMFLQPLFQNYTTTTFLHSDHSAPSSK
smiles,measurement,setting,value
"C1=CCC(c2cccnc2)NC1 (racemic) [Anatabine, (±)-Anatabine]",increase in norepinephrine release,[1]; at the higher doses,~20%
same,EC50,α3β4 nAChR [2]; [5],70.6 ± 8.2 µM
same,"% of the full receptor activity, α3β4 nAChR","α3β4 nAChR [2]; preliminary, data not shown",~40%
same,IC50,α3β4 nAChR [3],960 ± 200 nM
"CN1CCC[C@H]1c1cccnc1 [Nicotine, (-)-Nicotine]",EC50,[1]; hippocampal synaptosomes,4.22 µM
same,plasma concentration,[4],5 to 6 µM
"CN1C(=O)CC[C@H]1c1cccnc1 [Cotinine, (-)-cotinine]",α3β4 nAChR EC50 in µM,α3β4 nAChR [2]; [5],no detectable activities; also recorded: No effect *
same,binding for α3β4 nAChR,α3β4 nAChR [3],undetectable
same,binding for α4β2 nAChR,α4β2 nAChR,barely detectable
